Assay results taken from patent publication US20180339016A1 (priority 2015, published 2018).
Values joined by “and” are separate entries in the source; they are usually repeats but may differ in a detail not shown here. Equal entries are not always repeated. Where two headings read alike, the source gives them in different places.

Key:
E. coli [1] = assay: SYTOX Green membrane penetrability by FACS; assay type: cell-based; settings: FIG. 6
Experimental: In the second experiment, whether the peptides would have the ability to disrupt both the outer wall and inner wall of bacteria was examined. To this end, the fluorescent dye Sytox Green capable of specifically staining DNA was used, and penetrability into the microbial membrane was evaluated from the average fluorescence intensity of E. coli treated with SYTOX Green. An E. coli suspension (2×10^8 cells/mL) was incubated with the three peptides in the presence of SYTOX Green (2.5 μM) for 10 minutes, respectively. Penetrability was quantified by a (fluorescence activated cell sorter (FACS). The average fluorescence intensity of 1×10^4 gate cells was measured. Melittin (control) is a pore-forming peptide that disrupts the microbial cell membrane.

E. coli [2] = assay: NPN fluorescence, penetration into outer membrane; assay type: cell-based; settings: FIG. 5
Experimental: Penetration into the microbial outer membrane was measured by the fluorescence intensity of NPN-treated E. coli (λex=355 nm, λem=405 nm). An E. coli suspension (8×10^7 cells/mL) was centrifuged at 13000 rpm at 25° C. for 10 minutes, and suspended in 5 mM HEPES buffer (pH 7.2). NPN was added to the E. coli suspension to a final NPN concentration of 5 μM. The fluorescence intensity of the E. coli suspension was measured using the FL-55 fluorometer. The peptide together with 5 μM NPN was added to the E. coli suspension.

[3] = tested on: Escherichia coli (ATCC 25922); settings: peptide alone; peptide concentration required to inhibit growth by 20% (so in the source)
Experimental: (§1) The N-terminus of the peptides were acetylated and the C-terminus was amidated. The kinked structure can rapidly reduce the alpha-helical content, thereby greatly reducing the toxicity of the peptide against host cells. In addition, because of the potential to show specificity for the Gram-negative bacterial membrane, Pro-mutants were prepared by site-directed mutagenesis. Using the prepared peptides, their MIC for the Gram-negative bacterium E. coli and the Gram-positive bacterium S. aureus and their hemolytic activity for host cells were examined (Table 1).
(§2) To measure the synergy between the membrane-activating peptides and the repositioning drug, a 10× compound was prepared, and then serially diluted ⅔-fold with distilled water. An MH broth (900 μl) was added to and mixed with the 10× compound (100 μl), and then 200 μL of the mixture was taken and added to a 96-well plate. E. coli cultured for one day was adjusted to 0.5 MCF using MCFarland, and diluted 10-fold, and then 10 μl of the dilution was added to each well of the plate (5×10^5 CFU/mL). After addition of the bacterial cells, plate was incubated at 37° C. for 18 hours, and then the OD value at UV-Vis (600 nm) was measured. Cell viability (%)=(OD600 of sample−OD600 of negative control)/(OD600 of positive control−OD600 of negative control)×100.

E. coli ATCC 25922 [4] = settings: for MIC (μM) against E. coli ATCC 25922, Peptide alone: bacterial growth <10% of control
[5] = tested on: Staphylococcus aureus (ATCC 29213); assay: MIC of peptide against S. aureus; assay type: cell-based; settings: peptide alone
Experimental: as §1

E. coli ATCC 25922 [6] = assay: Antibiotic interaction assay (Wimley), 2/3 broth microdilution: MIC alone, MIC of combination, FICI; assay type: cell-based; settings: for MIC when the three compounds were used alone: Example 7; for MIC (μM) against E. coli ATCC, combination of two compounds / MIC (μM) against E. coli ATCC, combination of 3 compounds / concentration killing E. coli in combination KL-L9P/colistin/linezolid: concentration of labelled component; for FICI of peptide with colistin: labelled peptide + colistin; for FICI of peptide with linezolid: labelled peptide + linezolid
Experimental: Synergy was evaluated by an antibiotic interaction assay (Wimley, 2015) Using the method of Wimley (BBA, 2015, v. 1848(1), pp. 8-15), synergy between the membrane-activating peptide and an antibiotic was measured by an FICI value (FIG. 17). […] Thus, to accurately examine synergy, a ⅔ dilution method which observes MIC at denser concentration intervals is advantageous over a ½ dilution method in statistical terms. […] In the same manner, the MIC of an antibiotic or repositioning drug (second line) is measured. In the third line, the two compounds are mixed after putting half amount each, and the MIC thereof is measured.
A broth microdilution technique (⅔ dilution) was used together with an MH broth. E. coli treated with an antibiotic and the peptide was incubated in a 37° C. incubator for 18 hours.
as §2

E. coli NDm-1 = assay: Confocal microscopy of TAMRA-conjugated peptide; assay type: cell-based; settings: 2.5 μM peptide, 30 minutes, FIG. 8
Experimental: E. coli NDm-1 was diluted when it reached OD600=0.5. The microorganism was treated with 2.5 μM of the peptide in a 37° C. incubator for 30 minutes. LK-L12P was used as a positive control.

Gram-positive bacteria [7] = assay: Entry of peptide into Gram-positive bacteria; assay type: cell-based; settings: data not shown
Description: (§3) […]. […] […].

MDA MB231 cells = assay: FACS penetration of eukaryotic cells; assay type: cell-based; settings: 5 microM
Description: as §3

E. coli [8] = assay: FACS of TAMRA-labeled peptides entering Gram-negative bacteria; assay type: cell-based
Gram-positive bacteria [9] = settings: previously examined peptide; cited from earlier work
[10] = KL-L9P + colistin + (S)-ibuprofen
[11] = KL-L9P + colistin + cloxacillin
[12] = KL-L9P + colistin + simvastatin
[13] = Tables 19-23, read-out: MIC (μM) against E. coli ATCC, 1 compound alone

Compound	SYTOX Green DNA staining: ability to degrade or penetrate the inner wall (E. coli [1])	NPN fluorescence: touching/loosening the outer membrane (E. coli [2])	MIC [μM] Against E. coli [3]	MIC (μM) against E. coli ATCC 25922, Peptide alone (E. coli ATCC 25922 [4]; Table 4) [µM]	MIC [μM] Against S. aureus [5] [µM]	lowering of MIC in combination KL-L9P/colistin/linezolid versus alone (E. coli ATCC 25922 [6]) [fold]	MIC when the three compounds were used alone (E. coli ATCC 25922 [6]) [µM]	MIC (μM) against E. coli ATCC, combination of 3 compounds (E. coli ATCC 25922 [6]; [10]) [µM]	MIC (μM) against E. coli ATCC, combination of 3 compounds (E. coli ATCC 25922 [6]; [11]) [µM]	MIC (μM) against E. coli ATCC, combination of 3 compounds (E. coli ATCC 25922 [6]; KL-L9P + colistin + curcumin) [µM]	MIC (μM) against E. coli ATCC, combination of 3 compounds (E. coli ATCC 25922 [6]; KL-L9P + colistin + linezolid) [µM]	MIC (μM) against E. coli ATCC, combination of 3 compounds (E. coli ATCC 25922 [6]; [12]) [µM]	MIC (μM) against E. coli ATCC, combination of two compounds (E. coli ATCC 25922 [6]; KL-L9P + colistin) [µM]	MIC (E. coli ATCC 25922 [6]; [13]) [µM]	concentration killing E. coli in combination KL-L9P/colistin/linezolid (E. coli ATCC 25922 [6]) [µM]	FICI of peptide with colistin (E. coli ATCC 25922 [6])	FICI of peptide with linezolid (E. coli ATCC 25922 [6])	confocal image: membrane leakage / distribution of TAMRA-labeled peptide (E. coli NDm-1)	further results
CC[C@H](C)[C@H](NC(=O)CN)C(=O)NCC(=O)N[C@@H](C)C(=O)N[C@H](C(=O)N[C@@H](CC(C)C)C(=O)N[C@@H](CCCCN)C(=O)N[C@H](C(=O)N[C@@H](CC(C)C)C(=O)N[C@H](C(=O)N[C@H](C(=O)NCC(=O)N[C@@H](CC(C)C)C(=O)N1CCC[C@H]1C(=O)N[C@@H](C)C(=O)N[C@@H](CC(C)C)C(=O)N[C@H](C(=O)N[C@@H](CO)C(=O)N[C@@H](Cc1c[nH]c2ccccc12)C(=O)N[C@H](C(=O)N[C@@H](CCCCN)C(=O)N[C@@H](CCCNC(=N)N)C(=O)N[C@@H](CCCCN)C(=O)N[C@@H](CCCNC(=N)N)C(=O)N[C@@H](CCC(N)=O)C(=O)N[C@@H](CCC(N)=O)C(N)=O)[C@@H](C)CC)[C@@H](C)CC)[C@@H](C)O)[C@@H](C)O)C(C)C)C(C)C [Melittin]	have this ability	high ability to increase NPN fluorescence	–	–	–	–	–	–	–	–	–	–	–	–	–	–	–	–	–
KLLKLLKKPLKLLK [KL-L9P]	did not stain DNA	better effect of loosening the outer membrane than colistin	20 µM and 12 µM	15	>40	12	13	1.1	1.6	1.1	1.1	0.79	2.4	15	1	0.26	0.40	distributed around the thin peri-cytoplasmic membrane	FICI Against E. coli, Colistin & 1/2 MIC peptide (E. coli ATCC 25922 [4]; Table 13, Lys-Ala scanning library): 0.58; FICI Against E. coli, Colistin & 1/2 MIC peptide (E. coli ATCC 25922 [4]; Table 15, Leu-Ala scanning): 0.74; FICI Against E. coli, Colistin & 1/4 MIC peptide (E. coli ATCC 25922 [4]; Table 15, Leu-Ala scanning): 0.55; FICI of peptide with resveratrol (E. coli ATCC 25922 [6]; FIG. 10): 0.2; MIC (μM) against E. coli ATCC, combination of two compounds (E. coli ATCC 25922 [6]; KL-L9P + (S)-ibuprofen): 2.0 µM; MIC (μM) against E. coli ATCC, combination of two compounds (E. coli ATCC 25922 [6]; KL-L9P + cloxacillin): 3.0 µM; MIC (μM) against E. coli ATCC, combination of two compounds (E. coli ATCC 25922 [6]; KL-L9P + curcumin): 1.9 µM; MIC (μM) against E. coli ATCC, combination of two compounds (E. coli ATCC 25922 [6]; KL-L9P + linezolid): 2.6 µM; MIC (μM) against E. coli ATCC, combination of two compounds (E. coli ATCC 25922 [6]; KL-L9P + simvastatin): 1.3 µM; FICI of peptide with colistin and linezolid (E. coli ATCC 25922 [6]; labelled peptide + colistin + linezolid): 0.28; FICI of peptide with simvastatin (E. coli ATCC 25922 [6]; labelled peptide + simvastatin): 0.18; MIC of combination (μM): peptide (E. coli ATCC 25922 [6]; peptide concentration in combination with colistin): 2.6 µM
LKKLLKLLKKLPKL [LK-L12P]	–	–	2.5 µM	–	10	–	–	–	–	–	–	–	–	–	–	–	–	strongly induced leakage from the inner membrane and the outer membrane	–
LKKLLKLPKKLLKL [LK-L8P]	–	–	10 µM	3	>40	–	–	–	–	–	–	–	–	–	–	–	–	–	entry into Gram-positive bacteria (Gram-positive bacteria [7]): did not enter Gram-positive bacteria; penetration of eukaryotic cells (MDA MB231 cells): did not penetrate eukaryotic cells; Fractional Inhibitory Concentration Index (FICI), Colistin & 1 μM peptide (E. coli ATCC 25922 [4]; Table 4): 0.83, Synergism; extent to which the mutated peptides entered Gram-negative bacteria (order) (E. coli [8]; TAMRA-labeled, FIG. 1): P>>N=D>Q=E; portion of the peptide that entered Gram-negative bacteria (E. coli [8]; peptide about 2.5 microM): about 60%
RAGLQFPVGRVHRLLRK [buforin 5-20]	–	–	20 µM	–	–	–	–	–	–	–	–	–	–	–	–	0.5	0.7	–	activity against Gram-positive bacteria (Gram-positive bacteria [9]): no activity against Gram-positive bacteria
colistin	easily stained DNA	had the property of touching the outer membrane and entering the outer membrane	–	–	–	16	0.8	0.08	0.08	0.08	0.06	0.06	0.17	1	0.05	–	–	–	MIC (μM) against E. coli ATCC 25922, Colistin alone (E. coli ATCC 25922 [4]; Table 4): 1.25 µM; MIC (μM) against E. coli ATCC, combination of two compounds (E. coli ATCC 25922 [6]; colistin + (S)-ibuprofen): 0.55 µM; MIC (μM) against E. coli ATCC, combination of two compounds (E. coli ATCC 25922 [6]; colistin + cloxacillin): 0.63 µM; MIC (μM) against E. coli ATCC, combination of two compounds (E. coli ATCC 25922 [6]; colistin + curcumin): 0.30 µM; MIC (μM) against E. coli ATCC, combination of two compounds (E. coli ATCC 25922 [6]; colistin + linezolid): 0.60 µM; MIC (μM) against E. coli ATCC, combination of two compounds (E. coli ATCC 25922 [6]; colistin + simvastatin): 0.25 µM; MIC of combination (μM): KL-L9P (E. coli ATCC 25922 [6]; concentration of KL-L9P in combination with labelled drug): 2.40 µM; MIC of combination (μM): antibiotic (E. coli ATCC 25922 [6]; concentration of labelled drug in combination with KL-L9P): 0.17 µM; MIC (E. coli ATCC 25922 [6]; drug alone, <20% growth of positive control, read-out: MIC of antibiotic): 1.63 µM; FICI of drug with KL-L9P (E. coli ATCC 25922 [6]; labelled drug + KL-L9P): 0.26; FICIKL-L9P (E. coli ATCC 25922 [6]; labelled drug + KL-L9P): 0.16; FICIantibiotic (E. coli ATCC 25922 [6]; labelled drug + KL-L9P): 0.10
